In PubChem BioAssay AID686967 (The Scripps Research Institute Molecular Screening Center, 2013):
pIC50: −log10 of the molar value. Calls of active or inactive are those of the source. The rule behind the calls is not given here.

biological target: methionyl-tRNA synthetase (Trypanosoma brucei brucei); test: inhibition of trypanosome methionyl-tRNA synthetase – biochemical, luminescence, dose response, late-stage follow-up (AID 686967); settings: recombinant T. brucei MetRS, luminescence (ATP depletion)

Row | pIC50 | IC50 | SMILES
1 | 6.36 |  | O=C1CC(N(CCc2ccccc2)C(=S)Nc2ccccc2)C(=O)N1c1ccc(Br)cc1 (centres undefined)
2 | 6.32 |  | O=C1[C@@H]2Cc3c([nH]c4ccccc34)C(c3cccc([N+](=O)[O-])c3)N2C(=O)CN1CCCO (some centres undefined)
3 | 6.76 |  | O=C(Cn1cc(C(=O)C(=O)N2CCOCC2)c2ccccc21)Nc1cccc(C(F)(F)F)c1
4 | 6.83 |  | O=C(NCCc1nc2ccccc2[nH]1)c1ccc(Cl)c([N+](=O)[O-])c1
5 | 5.98 |  | CC(=O)c1c[nH]c(C(=O)NCc2cccc(C(F)(F)F)c2)c1
6 | 5.65 |  | O=C(CN1CCSC1=NCc1ccccc1)c1ccc(Cl)c(Cl)c1
7 | 5.55 |  | O=C(NNC(=O)c1ccc(-n2cncn2)c([N+](=O)[O-])c1)c1ccc(Cl)cc1
8 | 6.07 |  | CN(CC(=O)Nc1ccc(Cl)cc1)C(=O)c1ccc(-n2cncn2)c([N+](=O)[O-])c1
9 | 6.22 |  | COc1ccc2[nH]c3nc(SCC(=O)Nc4ccc5c(c4)OCO5)nnc3c2c1
10 | 5.45 |  | O=C(CCC(=O)Nc1cccc([N+](=O)[O-])c1)NN=Cc1cccs1
11 | 5.71 |  | O=C(C[C@H]1C(=O)N(Cc2ccccc2)C[C@@H]1c1ccc(Br)cc1)Nc1ccc(Br)cc1
12 | 5.51 |  | O=C(CC(=O)Nc1cccc(Cl)c1)NN=Cc1ccccc1
13 | 5.26 |  | COc1ccc(OCC(O)CNC(=O)Nc2ccc(Cl)cc2)cc1 (centres undefined)
14 | 5.19 |  | O=C(NCc1nc2ccccc2[nH]1)C1=C[C@H](C2CC2)C[C@H](OCc2ccc(CO)cc2)O1
15 | 5.52 |  | O=C(NCc1nc2ccccc2[nH]1)C1=C[C@H](c2ccc3c(c2)OCO3)C[C@H](OCCCCO)O1
16 | 5.92 |  | O=C(NNC(=O)c1cc(-c2ccc(Cl)c(Cl)c2)nc2ccccc12)Nc1ccccc1
17 |  | inactive | O=C1CC(SCc2nc3ccccc3[nH]2)C(=O)N1c1cccc(Cl)c1 (centres undefined)
18 | 5.96 |  | O=C(NCc1nc2ccccc2[nH]1)C1=C[C@@H](c2ccc3c(c2)OCO3)C[C@@H](OCCCCO)O1
19 |  | inactive | CCO[C@@H]1OC(C(=O)NCc2nc3ccccc3[nH]2)=C[C@H](c2ccc(Br)cc2)[C@H]1CCCO
20 | 5.80 |  | O=C(NCc1nc2ccccc2[nH]1)C1=C[C@H](c2ccc(Br)cc2)C[C@H](OCCCCO)O1
21 | 6.13 |  | O=C(NCc1nc2ccccc2[nH]1)C1=C[C@H](c2csc3ccccc23)C[C@H](OCCCCO)O1
22 | 5.62 |  | O=C(NCc1nc2ccccc2[nH]1)C1=C[C@H](c2ccc(Br)cc2)C[C@H](OCc2ccc(CO)cc2)O1
23 | 6.17 |  | O=C(NCc1nc2ccccc2[nH]1)C1=C[C@@H](c2ccc(Br)cc2)C[C@@H](OCCCCO)O1
24 | 6.53 |  | C[C@H](O)[C@@H]1C(=O)N2CCc3c([nH]c4ccccc34)[C@@H]2C[C@@H]1N(C)Cc1ccc2c(c1)OCO2
25 | 5.38 |  | Cc1[nH]c2ccc(Br)cc2c(=O)c1CN1CCCCCC1
26 | 5.83 |  | O=C(NCc1nc2ccccc2[nH]1)C1=C[C@@H](C2CC2)C[C@@H](OCc2ccc(CO)cc2)O1
27 | 5.46 |  | Cc1ccc(NC(=O)CN(C)C(=O)CCSc2ccc(F)cc2)cc1

Row | pIC50 | IC50 | SMILES
28 | 6.23 |  | CN(Cc1cc(Cl)cc(Cl)c1)[C@H]1C[C@H]2c3[nH]c4ccccc4c3CCN2C(=O)[C@H]1CO
29 | 6.19 |  | CC(C)OCCCN1CC(=O)N2C(c3cccc([N+](=O)[O-])c3)c3[nH]c4ccccc4c3C[C@H]2C1=O (some centres undefined)
30 | 5.12 |  | Clc1ccc(OCCSCc2nc3ccccc3[nH]2)cc1
31 | 5.16 |  | O=C(NCc1nc2ccccc2[nH]1)C1=C[C@H](c2ccccc2)C[C@H](OCc2ccc(CO)cc2)O1
32 | 5.42 |  | COc1ccccc1-n1c(SCC(=O)Nc2ccc(Cl)cc2)nc(O)c(Cc2ccccc2)c1=O
33 | 6.37 |  | Oc1c(Cl)cc(Cl)cc1CNc1nc2ccccc2[nH]1
34 | 5.80 |  | O=C(Nc1ccc(F)c(Cl)c1)C1CC(=O)n2c(nc3ccccc32)N1 (centres undefined)
35 | 5.97 |  | O=C(NCc1nc2ccccc2[nH]1)C1=C[C@@H](c2ccc(Br)cc2)C[C@@H](OCc2ccc(CO)cc2)O1
36 | 6.22 |  | Clc1ccc(-c2nnc(SCc3nc4ccccc4[nH]3)o2)c(Cl)c1
37 | 5.39 |  | CCCCCCCCCC1NC(C(=O)O)Cc2c1[nH]c1ccccc21 (centres undefined)
38 | 7.36 |  | COc1cccc(NC(=O)CSc2nnc3c(n2)[nH]c2ccc(C)cc23)c1
39 | 6.24 |  | CC(=O)c1ccc(N2CCN(C(=O)CCCn3c(=O)[nH]c4ccc(Br)cc4c3=O)CC2)cc1
40 | 6.47 |  | CN1CC(=O)N2C(c3cccc([N+](=O)[O-])c3)c3[nH]c4ccccc4c3C[C@H]2C1=O (some centres undefined)
41 | 5.84 |  | O=C(CC=NOCc1ccc([N+](=O)[O-])cc1)Nc1ccc(Br)cc1
42 | 5.97 |  | O=C(CC=NOCc1ccc([N+](=O)[O-])cc1)Nc1ccc(Cl)cc1
43 | 5.63 |  | O=C(NCc1nc2ccccc2[nH]1)C1=C[C@@H](c2csc3ccccc23)C[C@@H](OCCCCO)O1
44 | 5.80 |  | O=C(NCc1nc2ccccc2[nH]1)C1=C[C@@H](c2ccccc2)C[C@@H](OCc2ccc(CO)cc2)O1
45 | 5.49 |  | O=C(N/C(=C\c1cccnc1)c1nc2ccccc2[nH]1)c1cccc(Br)c1
46 | 5.47 |  | CC(C)(C)[C@@H]1C=C(C(=O)NCc2nc3ccccc3[nH]2)O[C@H](OCc2ccc(CO)cc2)C1
47 | 5.20 |  | CCO[C@H]1OC(C(=O)NCc2nc3ccccc3[nH]2)=C[C@@H](c2ccc(Br)cc2)[C@@H]1CCCO
48 | 5.20 |  | CCOC(=O)N1CCC(Nc2c(Nc3ccc(F)cc3)c(=O)c2=O)CC1
49 | 5.55 |  | CC(C)(C)[C@H]1C=C(C(=O)NCc2nc3ccccc3[nH]2)O[C@@H](OCc2ccc(CO)cc2)C1
50 | 5.62 |  | Brc1cnc2nc(SCc3nc4ccccc4[nH]3)[nH]c2c1
51 | 5.89 |  | O=C(Cn1cnc2ccccc21)Nc1cccc([N+](=O)[O-])c1
52 | 6.22 |  | COc1ccccc1NS(=O)(=O)c1cccc(NC(=O)Nc2ccccc2)c1
53 | 6.12 |  | COc1ccc(CNC(=O)CSc2nnc3c(n2)[nH]c2ccc(F)cc23)cc1
54 | 6.02 |  | CC(CC(=O)Nc1cccc(Br)c1)=NNC(=O)c1ccc(O)cc1O
